Reference: patent publication US12331040B2 (Karyopharm Therapeutics Inc., priority 2013, dated 2025)
pIC50: −log10 of the molar value. Like-named read-outs stand apart in the source and are kept apart here.

Experiments:
Assay in all cases: MTT cell proliferation assay
Format in all cases: cell-based
3T3 cells = settings: Mus musculus, NIH3T3, approximately 64-72 hours incubation
Outline: (§1)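 5,000-10,000 cells/well, overnight attach; 8 conc., 1 nM–30 μM; MTT ~4 h; formazan solubilized, OD 490 nm; % inhibition = (1−(ODo/OD))×100 vs neg. control; mostly duplicate, mean±SE.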

MS751 cells = settings: Homo sapiens, MS751, MS751 cells, approximately 64-72 hours incubation
Outline: as §1

Z138 cells = settings: Homo sapiens, Z-138, Z138 cells, approximately 64-72 hours incubation
Outline: as §1

[1] = read-out: MTT Assay IC50 MS-751
[2] = read-out: MTT Assay IC50, MS-751
[3] = read-out: MTT Assay IC50, Z-138

Row | Compound | pIC50 (3T3 cells; read-out: MTT Assay IC50 3T3) | pIC50 (MS751 cells; [1]) | pIC50 (Z138 cells; read-out: MTT Assay IC50 Z-138) | pIC50 (3T3 cells; read-out: MTT Assay IC50, 3T3) | pIC50 (MS751 cells; [2]) | pIC50 (Z138 cells; [3])
1 | COc1cc(-c2ncc(C(=O)N3CCNCC3)cn2)cc2cc(CNC(=O)/C=C/c3ccc(N)nc3)oc12 [Compound 639, (E)-3-(6-aminopyridin-3-yl)-N-((7-methoxy-5-(5-(piperazine-1-carbonyl)pyrimidin-2-yl)benzofuran-2-yl)methyl)acrylamide] | < 5.00 | 5.30 to 7.00 | 5.30 to 7.00 |  |  | 
2 | Nc1ccc(/C=C/C(=O)NCc2cc3cc(-c4ccc(C(=O)N5CCC(F)CC5)cc4)cc(C(F)(F)F)c3o2)cn1 [Compound 567, (E)-3-(6-aminopyridin-3-yl)-N-((5-(4-(4-fluoropiperidine-1-carbonyl)phenyl)-7-(trifluoromethyl)benzofuran-2-yl)methyl)acrylamide] | < 5.00 | 5.30 to 7.00 | 5.30 to 7.00 |  |  | 
3 | Nc1ccc(/C=C/C(=O)NCc2cc3cc(-c4ccc(C(=O)N5CCC(F)(F)CC5)cn4)cc(-c4nnco4)c3o2)cn1 [Compound 662, (E)-3-(6-aminopyridin-3-yl)-N-((5-(5-(4,4-difluoropiperidine-1-carbonyl)pyridin-2-yl)-7-(1,3,4-oxadiazol-2-yl)benzofuran-2-yl)methyl)acrylamide] |  |  |  | < 5.00 | 5.30 to 7.00 | 5.30 to 7.00
4 | Nc1ccc(/C=C/C(=O)NCc2cc3cc(-c4ncc(C(=O)N5CCNCC5)cn4)cc(C(F)(F)F)c3o2)cn1 [Compound 590, (E)-3-(6-aminopyridin-3-yl)-N-((5-(5-(piperazine-1-carbonyl)pyrimidin-2-yl)-7-(trifluoromethyl)benzofuran-2-yl)methyl)acrylamide] | < 5.00 | 5.30 to 7.00 | 5.30 to 7.00 |  |  | 
5 | Nc1ccc(/C=C/C(=O)NCc2cc3cc(-c4ccc(C(=O)N5CCOCC5)cn4)cc(Cl)c3o2)cn1 [Compound 560, (E)-3-(6-aminopyridin-3-yl)-N-((7-chloro-5-(5-(morpholine-4-carbonyl)pyridin-2-yl)benzofuran-2-yl)methyl)acrylamide] | < 5.00 | 5.30 to 7.00 | 5.30 to 7.00 |  |  | 
6 | Nc1ccc(/C=C/C(=O)NCc2cc3cc(-c4ccc(S(=O)(=O)N5CCOCC5)cc4)cc(C(F)(F)F)c3o2)cn1 [Compound 531, (E)-3-(6-aminopyridin-3-yl)-N-((5-(4-(morpholinosulfonyl)phenyl)-7-(trifluoromethyl)benzofuran-2-yl)methyl)acrylamide] | 5.30 to 7.00 | > 7.00 | 5.30 to 7.00 |  |  | 
7 | COc1cc(-c2ccc(S(=O)(=O)N3CCOCC3)cc2)cc2cc(CNC(=O)/C=C/c3ccc(N)nc3)oc12 [Compound 635, (E)-3-(6-aminopyridin-3-yl)-N-((7-methoxy-5-(4-(morpholinosulfonyl)phenyl)benzofuran-2-yl)methyl)acrylamide] | 5.30 to 7.00 | > 7.00 | > 7.00 |  |  | 
8 | Nc1ccc(/C=C/C(=O)NCc2cc3cc(-c4ccc(C(=O)N5CC[C@@H](F)C5)cc4)cc(Cl)c3o2)cn1 [Compound 523, (R,E)-3-(6-aminopyridin-3-yl)-N-((7-chloro-5-(4-(3-fluoropyrrolidine-1-carbonyl)phenyl)benzofuran-2-yl)methyl)acrylamide] | < 5.00 | < 5.00 | < 5.00 |  |  | 
9 | Nc1ccc(/C=C/C(=O)NCc2cc3cc(-c4ccc(C(O)c5ccc(F)cc5)cn4)cc(-c4ccc(F)cc4)c3o2)cn1 (stereo not drawn) [Compound 704, (E)-3-(6-aminopyridin-3-yl)-N-((7-(4-fluorophenyl)-5-(5-((4-fluorophenyl)(hydroxy)methyl)pyridin-2-yl)benzofuran-2-yl)methyl)acrylamide] |  |  |  | < 5.00 | 5.30 to 7.00 | 5.30 to 7.00
10 | Nc1ccc(/C=C/C(=O)NCc2cc3cc(-c4ccc(C(=O)N5CCNCC5)cn4)cc(C(F)(F)F)c3o2)cn1 [Compound 577, (E)-3-(6-aminopyridin-3-yl)-N-((5-(5-(piperazine-1-carbonyl)pyridin-2-yl)-7-(trifluoromethyl)benzofuran-2-yl)methyl)acrylamide] | < 5.00 | > 7.00 | > 7.00 |  |  | 
11 | O=C(/C=C/c1cccnc1)NCc1cc2cc(-c3ccc(C(=O)N4CCOCC4)cc3)cc(Cl)c2o1 [Compound 538, (E)-N-((7-chloro-5-(4-(morpholine-4-carbonyl)phenyl)benzofuran-2-yl)methyl)-3-(pyridin-3-yl)acrylamide] | 5.30 to 7.00 | 5.30 to 7.00 | 5.30 to 7.00 |  |  | 
12 | CC(C)(C)c1cc(-c2ccc(C(=O)N3CCOCC3)cc2)cc2cc(CNC(=O)/C=C/c3ccc(N)nc3)oc12 [Compound 511, (E)-3-(6-aminopyridin-3-yl)-N-((7-tert-butyl-5-(4-(morpholine-4-carbonyl)phenyl)benzofuran-2-yl)methyl)acrylamide] | < 5.00 | 5.30 to 7.00 | 5.30 to 7.00 |  |  | 
13 | COc1cc(-c2ccc(C(=O)N3CCOCC3)cc2)cc2cc(CNC(=O)/C=C/c3ccc(N)nc3)oc12 [Compound 592, (E)-3-(6-aminopyridin-3-yl)-N-((7-methoxy-5-(4-(morpholine-4-carbonyl)phenyl)benzofuran-2-yl)methyl)acrylamide] | < 5.00 | 5.30 to 7.00 | > 7.00 |  |  | 
14 | CC(C)(O)c1ccc(-c2cc(Cl)c3oc(CNC(=O)/C=C/c4ccc(N)nc4)cc3c2)s1 [Compound 650, (E)-3-(6-aminopyridin-3-yl)-N-((7-chloro-5-(5-(2-hydroxypropan-2-yl)thiophen-2-yl)benzofuran-2-yl)methyl)acrylamide] | < 5.00 | 5.30 to 7.00 | 5.30 to 7.00 |  |  | 
15 | Nc1ccc(/C=C/C(=O)NCc2cc3cc(-c4ccc(C(=O)N5CCC(Cl)CC5)cn4)cc(C(F)(F)F)c3o2)cn1 [Compound 614, (E)-3-(6-aminopyridin-3-yl)-N-((5-(5-(4-chloropiperidine-1-carbonyl)pyridin-2-yl)-7-(trifluoromethyl)benzofuran-2-yl)methyl)acrylamide] | < 5.00 | 5.30 to 7.00 | 5.30 to 7.00 |  |  | 
16 | CC1(C)C2CN(C(=O)c3ccc(-c4cc(C(F)(F)F)c5oc(CNC(=O)/C=C/c6ccc(N)nc6)cc5c4)nc3)CC21 (stereo not drawn) [Compound 631, (E)-3-(6-aminopyridin-3-yl)-N-((5-(5-(6,6-dimethyl-3-azabicyclo[3.1.0]hexane-3-carbonyl)pyridin-2-yl)-7-(trifluoromethyl)benzofuran-2-yl)methyl)acrylamide] | < 5.00 | 5.30 to 7.00 | 5.30 to 7.00 |  |  | 
17 | Nc1ccc(/C=C/C(=O)NCc2cc3cc(-c4ccc(C(=O)N5CCOCC5)c(F)c4F)cc(Cl)c3o2)cn1 [Compound 548, (E)-3-(6-aminopyridin-3-yl)-N-((7-chloro-5-(2,3-difluoro-4-(morpholine-4-carbonyl)phenyl)benzofuran-2-yl)methyl)acrylamide] | < 5.00 | 5.30 to 7.00 | 5.30 to 7.00 |  |  | 
18 | O=C(/C=C/c1ccc(Cl)nc1)NCc1cc2cc(-c3ccc(C(=O)N4CCOCC4)cc3)cc(Cl)c2o1 [Compound 537, (E)-N-((7-Chloro-5-(4-(morpholine-4-carbonyl)phenyl)benzofuran-2-yl)methyl)-3-(6-chloropyridin-3-yl)acrylamide] | < 5.00 | < 5.00 | < 5.00 |  |  | 
19 | CC1(C)COCCN1C(=O)c1ccc(-c2cc(C(F)(F)F)c3oc(CNC(=O)/C=C/c4ccc(N)nc4)cc3c2)nc1 [Compound 569, (E)-3-(6-aminopyridin-3-yl)-N-((5-(5-(3,3-dimethylmorpholine-4-carbonyl)pyridin-2-yl)-7-(trifluoromethyl)benzofuran-2-yl)methyl)acrylamide] | < 5.00 | > 7.00 | > 7.00 |  |  | 
20 | CN1CCN(C(=O)c2cnc(-c3cc(C(F)(F)F)c4oc(CNC(=O)/C=C/c5ccc(N)nc5)cc4c3)nc2)CC1 [Compound 594, (E)-3-(6-aminopyridin-3-yl)-N-((5-(5-(4-methylpiperazine-1-carbonyl)pyrimidin-2-yl)-7-(trifluoromethyl)benzofuran-2-yl)methyl)acrylamide] | < 5.00 | 5.30 to 7.00 | 5.30 to 7.00 |  |  | 
21 | CC1(C)CNCCN1C(=O)c1ccc(-c2cc(C(F)(F)F)c3oc(CNC(=O)/C=C/c4ccc(N)nc4)cc3c2)cc1 [Compound 575, (E)-3-(6-aminopyridin-3-yl)-N-((5-(4-(2,2-dimethylpiperazine-1-carbonyl)phenyl)-7-(trifluoromethyl)benzofuran-2-yl)methyl)acrylamide] | < 5.00 | 5.30 to 7.00 | 5.30 to 7.00 |  |  | 
22 | Nc1ccc(/C=C/C(=O)NCc2cc3cc(-c4ccc(C(=O)N5CC6CC(C5)O6)cn4)cc(C(F)(F)F)c3o2)cn1 [Compound 626, (E)-N-((5-(5-(6-oxa-3-azabicyclo[3.1.1]heptane-3-carbonyl)pyridin-2-yl)-7-(trifluoromethyl)benzofuran-2-yl)methyl)-3-(6-aminopyridin-3-yl)acrylamide] | < 5.00 | 5.30 to 7.00 | 5.30 to 7.00 |  |  | 
23 | Nc1ccc(/C=C/C(=O)NCc2cc3cc(-c4ccc(C(=O)N5CCC(F)(F)CC5)cc4F)cc(-c4cccnc4)c3o2)cn1 [Compound 748, (E)-3-(6-aminopyridin-3-yl)-N-((5-(4-(4,4-difluoropiperidine-1-carbonyl)-2-fluorophenyl)-7-(pyridin-3-yl)benzofuran-2-yl)methyl)acrylamide] |  |  |  | 5.30 to 7.00 | > 7.00 | > 7.00
